Test results as given in US20240117305A1, “THREE-DIMENSIONAL PRINTABLE BIOCOMPATIBLE PHOTOPOLYMERIZABLE INK WITH SPATIALLY CONTROLLED DUAL PROTEIN MOTIFS FOR CO-CULTURE FUNCTIONALITY” (Rowan University, priority 2022, published 2024).
“Also recorded” adds a separate entry of the source.

What was measured:
[1] = system: hCMEC/D3 endothelial cells; assay: Endothelial spreading and cell coverage in peptide-lined DLP-printed channels; format: cell-based; conditions: for Cell spreading and vessel coverage over time: 650 μm channels in photoink formulation no. 1, 5-day static culture, images on days 1, 3, 5; for Percent cell coverage within the vessel versus control / other motifs: 650 μm channels in photoink formulation no. 1, static culture, day 5, peptide clicked to channel wall; for Microenvironment for vessel coverage and development of barrier function: overall statement covering coverage and ZO-1 results in hCMEC/D3 endothelial cells
Protocol: Radicalized driven thiol-ene reaction schemes were utilized for functionalizing biomaterials. Several thiolated peptide cell binding motifs were functionalized to the walls of the printed geometry. Fluorescent labeled peptides were first synthesized via peptide synthesizer. […] Lyophilized RFP and GFP were both brought to room temperature and diluted to 10 mg/mL in 1×PBS. The bifurcation geometry print included RFP peptide in the bulk solution at 1:1000, while 300 μL of GFP was flowed into the channel at 10 μg/mL and hit with […] for 180 seconds. Process was repeated in the same manner for channel functionalization of the ‘RU’ geometry. Similarly, HAVDI(HAVDIGGGC), derived from N-Cadherein and RGD(GCGYGRGDSPG), derived from multiple ECM proteins, were synthesized and purchased from Genscript. IKVAV(GCGGGIKVAVG), a laminin derived motif, was fabricated using a peptide synthesizer. 5 mg/mL Irgacure 12959 was diluted to 0.5 mg/mL in PBS and thiolated peptide was added to a final concentration of 5 mM. 50 μL of peptide solution was injected into the channel and 10 mW/cm^2 was radiated onto surface of gel for 60 seconds. This process was repeated after inverting the gel to assure full coverage of the peptide onto the surface of the channel. Gels were then washed out 2× for 30 minutes in PBS to remove any unbound peptide.
(§1) P23 hCMEC/D3 endothelial cells (with and without transfection with RFP-LifeAct) were cultured until 90% confluent, trypsinized, and suspended at a concentration of 50M/mL for hydrogel cell seeding. Hydrogels were seeded with 22 μL of 12.5 M/mL and placed face up at the bottom of six well plate with 1 mL of EGM-2 incubated at 37° C./5% CO2. The cell seeding technique included 90° rotations every 30 minutes with additional seeding every hour for 4 hours. Following initial seeding, 8.8 μL of 12.5 M/mL HCMEC/D3 were injected into the bifurcation geometry for vessel coating. After 4 hours, hydrogels were kept in static culture for 4-5 days in EGM-2.
(§2) In order to quantify cell spreading, a z-projection was used with an arbitrary ROI to quantify the percentage of the area covered by cells. Three different ROI's were analyzed to provide an average and standard deviation. ZO-1 intensity was quantified in both static and perfused culture at different locations within the branched network. The image intensity along approximately 70-μm lines across the image plane were plotted to quantify ZO-1 localization to cell-cell junctions. […] ImageJ was used for all image processing and analysis.
Imaging was performed on a Nikon Eclipse Ti Confocal Microscope to assess cell spreading, morphology, and proliferation in 3D overtime within these microvessels. Images were taken on days 1, 3, and 5 following cell seeding.
(§3) A two-factor ANOVA was calculated to test for significance in the two variables of time and peptide coating in the cell spreading assay. In order to test for significance in the ZO-1 localization experiments, a one-factor ANOVA was calculated for each peptide condition tested.

[2] = system: ZO-1 localization in hCMEC/D3 cells; assay: ZO-1 localization to cell-cell junctions (tight junction integrity) in peptide-lined vessels; format: cell-based; conditions: for ZO-1 staining localization to cell-cell junctions (images): photoink formulation no. 1, static conditions for five days; for Root mean square ZO-1 intensity quantification (barrier formation): photoink formulation no. 1, static culture day 5, p<0.05
Protocol: as §1
Vessels cultured in static conditions for four days were hooked up to pressure driven flow using an Arduino-controlled peristaltic pump. Gels were ported inside a perfusion chamber with 20-gauge PTFE catheter tips connected to luer locks with tygon tubing (McMaster Carr). Vessels were connected in parallel through a dampener with EGM-2 for 24 hours at a flow rate of ˜5 mL/min or 44.4 dyne/cm^2 shear stress in the branches and 1.68 dyne/cm^2 in the region adjacent to the bifurcation.
Following static and/or flow culture within the vessels, hydrogels were washed 3× in PBS and placed in 4% paraformaldehyde for 20 minutes. Gels were washed in PBS and a primary monoclonal antibody for zonula-occluden-1 (ZO-1) (Cell Signaling Technologies) was added at 1:250 in PBS and incubated at 4° C. for 48 hours. Gels were then washed for 10 minutes 3× in PBS on the rocker. Far red-labeled ZO-1 secondary antibody (Cell Signaling Technologies) was diluted 1:250 in PBS along with Hoesch at 2 ug/ml. Solution was added to the gels and incubated for 1 hour at 37° C. Gels were then washed and imaged on a Nikon Eclipse Ti Confocal microscope.
as §2, §3

Row | Sequence | Cell spreading and vessel coverage over time [1] | Percent cell coverage within the vessel versus control / other motifs [1] | Microenvironment for vessel coverage and development of barrier function [1] | ZO-1 staining localization to cell-cell junctions (images) [2] | Root mean square ZO-1 intensity quantification (barrier formation) [2] | Endothelial coverage of the branched (bifurcation) topology ([1]; bifurcation vessel, endothelial cells only, before seeding astrocytes) | ZO-1 localization in response to flow ([2]; network topology designed to induce flow separation, fully developed versus disturbed flow)
1 | GCGGGIKVAVG [thiolated laminin derived motif, covalently clicked to channel walls] | exhibited no noticeable difference in vessel coverage throughout the 5-day static culture | significantly improve endothelialization compared to other motifs; also recorded: significantly higher coverage than the control condition | provide the most favorable microenvironment for both vessel coverage and development of barrier function | increase zonula occulends-1 (“ZO-1”) localization to cell-cell junctions; also recorded: exhibited more ZO-1 localization to the cell-cell junctions | significantly higher barrier formation than the RGD and control-lined channels | – | –
2 | HAVDIGGGC | over the course of the experiment cells began to spread and cover the walls; also recorded: took several days to spread and cover the vessel wall | significantly improve endothelialization compared to other motifs; also recorded: significantly higher coverage than the control condition | provide the most favorable microenvironment for both vessel coverage and development of barrier function | increase zonula occulends-1 (“ZO-1”) localization to cell-cell junctions; also recorded: ZO-1 junctional staining was the clearest; also recorded: induced the highest ZO-1 localization to the cell-cell junctions | significantly higher barrier formation than the RGD and control-lined channels | – | –
3 | GCGYGRGDSPG [thiolated peptide motif derived from multiple ECM proteins, clicked to channel walls or in the bulk photoink] | exhibited immediate spreading on PEG-norbornene and progressed linearly overtime; also recorded: increased cell spreading | – | – | the ZO-1 was the most diffuse in this condition; also recorded: did not result in the highest ZO-1 localization to cell-cell junctions | – | full channel coverage was possible | no significant difference in ZO-1 localization in response to fully developed and disturbed flow
